# Results as given in patent US5760036A, “Aminediol protease inhibitors” (E. R. Squibb & Sons, Inc., priority 1995, dated 1998).
# Like-named read-outs stand apart in the source and are kept apart here.
# Molecular target: T1, HIV protease (Human immunodeficiency virus type 1 group M subtype B, UniProt P04585)
# T1 construct: and purified protease
# Experiment: HIV Protease Assay
# Format: biochemical
# Details: for HIV Protease % Inhibition at 10 μM: 10 μM inhibitor
# Protocol: An HIV protease standard assay was performed in a 60 μl reaction medium containing 50 mM sodium acetate, pH 5.5, 100 μg/ml bovine serum albumen,450 μM substrate (H2 N-Val-Ser-Gln-Asn-(β-naphthyl-alanine)-Pro-Val-Ile-OH), and purified protease. The reaction medium was incubated for 30 minutes at 37° C., quenched by the addition of 140 μl 5% H3 PO4, then analyzed by reverse phase HPLC using UV220 detection. In a typical control assay, 7% of the substrate was hydrolyzed. Aminediol inhibitors of the present invention, listed in the following Table 1, were then employed in the assay, for which purpose they were prepared as a […] solution in DMSO, then diluted to 30 μM with 50 mM sodium acetate/bovine serum albumen. This working stock was then diluted three-fold into the protease reaction medium, for a final concentration of 10 μM inhibitor and 4% DMSO.
# [1] = pH 5.5, 10 μM inhibitor, 4% DMSO, 450 μM substrate, pH 5.5, 30 minutes at 37° C., RP-HPLC, read-out: HIV Protease % Inhibition at 10 μM
# [2] = 4% DMSO, 450 μM substrate, pH 5.5, 30 minutes at 37° C., RP-HPLC
Compound,inhibition at 10 µM [1] [%],also measured
"CC(C)[C@H](NC(=O)OCc1ccccc1)C(=O)N[C@@H](Cc1ccccc1)[C@@H](O)CNC[C@@H](O)[C@H](Cc1ccccc1)NC(=O)OC(C)(C)C [Compound 115, [S-[1R*,2R*(2S*.3R*)]-N-[3-[[3-[[(1,1-Dimethylethoxy)carbonyl]amino]-2-hydroxy-4-phenylbutyl]amino]-2-hydroxy-1-phenylmethyl)propyl]-N^2-[(phenylmethoxy)-carbonyl]-L-valinamide]",58,
"CC(C)(C)OC(=O)N[C@@H](Cc1ccccc1)[C@H](O)CNC[C@@H](O)[C@H](Cc1ccccc1)NC(=O)C(CCO)C(C)(C)C (single isomer, unassigned; isomer b) [Compound 313, [1S-[1R*, 2S* (2S*, 3R*)][-[3-[[3-[[2-(1,1-Dimethylethyl)-4-hydroxy-1-oxobutyl]amino]-2-hydroxy-4-phenylbutyl]amino]-2-hydroxy-1-(phenylmethyl)propyl]carbamic acid, 1,1-dimethylethyl ester, isomer B]",,HIV Protease % Inhibition at 10 μM [2]: 65%
"CC(C)(C)OC(=O)N[C@@H](Cc1ccccc1)[C@H](O)CNC[C@@H](O)[C@H](Cc1ccccc1)NC(=O)[C@@H](O)C(C)(C)C [Compound 335, [1S-[1R*,2S*[2S*,3R*(R*)]]]-[3-[[3-[(2-Hydroxy-3,3-dimethyl-1-oxobutyl)amino]-2-hydroxy-4-phenylbutyl]amino]-2-hydroxy-1-(phenylmethyl)propyl]carbamic acid, 1,1-dimethylethyl ester]",89,
"CC(C)(C)OC(=O)N1Cc2ccccc2C[C@H]1[C@@H](O)CNC[C@H](O)[C@@H]1Cc2ccccc2CN1C(=O)OC(C)(C)C [Compound 10, [S-(R*,R*)]-3,3'-[Iminobis(1-hydroxy-2,1-ethanediyl)]-bis[2(1H)-iso-quinolinecarboxylic acid], bis(1,1-dimethylethyl) ester]",1,
"C=Cc1ccccc1C[C@H](NC(=O)OC(C)(C)C)[C@H](O)CNC[C@@H](O)[C@H](Cc1ccccc1)NC(=O)OC(C)(C)C [Compound 370, [1S-[1R*,2S*(2S*, 3R*)]]-[3-[[3-[[(1,1-Dimethylethoxy)carbonyl]amino]-2-hydroxy-4-(2-ethenylphenyl)butyl]amino]-2-hydroxy-1-(phenylmethyl)propxyl]carbamic acid, 1.1-dimethylethyl ester]",96,
"CNC(=O)OC(C(=O)N[C@@H](Cc1ccccc1)[C@H](O)CNC[C@@H](O)[C@H](Cc1ccccc1)NC(=O)OC(C)(C)C)C(C)(C)C (stereo partly drawn) [Compound 287, [1S-[1R*,2S*(2S*,3R*)]]-[3-[[3-[[3,3-Dimethyl-2-[[(methylamino)carbonyl]oxy]-1-oxobutyl]amino]-2-hydroxy-4-phenylbutyl]amino]-2-hydroxy-1-(phenylmethyl)propyl]-carbamic acid, 1,1-dimethylethyl ester]",89,
"CC(C)(CO)OC(=O)N[C@@H](Cc1ccccc1)[C@H](O)CNC[C@@H](O)[C@H](Cc1ccccc1)NC(=O)C1(O)CCCC1(C)C (single isomer, unassigned; isomer b) [Compound 369, [1S-[1R*,2S*(2S*,3R*)]]-[r3-[[3-[[(2,2-Dimethyl-1-hydroxycyclopentyl)-carbonyl]amino]-2-hydroxy-4-phenylbutyl]amino]-2-hydroxy-1-(phenylmethyl)propyl]carbamic acid, 2-hydroxy-1,1-dimethylethyl ester. isomer B]",,HIV Protease % Inhibition at 10 μM [2]: 96%
"CC(C)(C)OC(=O)N[C@@H](Cc1ccccc1)[C@H](O)CNC[C@@H](O)[C@H](Cc1ccccc1)NC(=O)[C@@H](NC(=O)OCc1ccccc1)c1ccccc1 [Compound 94, [1S-[1R* [1R*,2S* (2S*,3R*)]]]-[2-[[3-[[3-[[(1,1-Dimethylethoxy)carbonyl]amino]-2-hydroxy-4-phenylbutyl]amino]-2-hydroxy-1-(phenylmethyl)propyl]amino]-2-oxo-1-phenylethyl]carbamic acid, phenylmethyl ester]",80 to 99,
"CC(C)(C)OC(=O)N1CCC[C@H]1C(O)CNCC(O)[C@@H]1CCCN1C(=O)OC(C)(C)C (single isomer, unassigned) [Compound 7]",8,
"CC(C)(C)OC(=O)N[C@@H](Cc1ccccc1)[C@H](O)CNC[C@@H](O)[C@H](Cc1ccccc1)NC(=O)C1(O)CCc2ccccc21 (single isomer, unassigned; isomer b) [Compound 376, [1S-[1R*,2S*(2S*, 3R*)]]-[3-[[3-[[(2,3-Dihydro-1-hydroxy-1H-inden-1-yl)carbonyl]amino]-2-hydroxy-4-phenylbutyl]amino]-2-hydroxy-1-(phenylmethyl)propyl]carbamic acid, 1.1-dimethylethyl ester, isomer B]",,HIV Protease % Inhibition at 10 μM [2]: 63%
"CC(C)(C)OC(=O)N[C@@H](Cc1ccccc1)[C@H](O)CNC[C@@H](O)[C@H](Cc1ccccc1)NC(=O)CC(O)CO (stereo partly drawn) [Compound 255, [1S-[1R*,2S*(2S*,3R*)]]-[3-[[3-[(3,4-Dihydroxy-1-oxo-butyl)amino]-2-hydroxy-4-phenylbutyl]amino]-2-hydroxy-1-(phenylmethyl)propyl]carbamic acid, 1,1-dimethylethyl ester]",86,
"CC(C)(C)OC(=O)N1Cc2ccccc2C[C@H]1[C@H](O)CNC[C@H](O)[C@@H]1Cc2ccccc2CN1C(=O)OC(C)(C)C [Compound 12, [S-(R*,R*)]-3-[2-[[[-(R*,S*)]-2-[2-[(1,1-Dimethylethoxy)carbonyl]-1,2,3,4-tetrahydro-3-isoquinolinyl]-2-hydroxyethyl]amino]-1-hydroxyethyl]-3,4-dihydro-2(1H)-isoquinolinecarboxylic acid, (1,1-dimethylethyl) ester]",1,
"CC(C)(C)OC(=O)N[C@@H](Cc1ccccc1)[C@H](O)CNC[C@@H](O)[C@H](Cc1ccccc1)NC(=O)[C@@H](O)c1ccccc1 [Compound 378, [1S-[1R*,2S*[2S*, 3R*(R*)]]]-[3-[[3-[2-Hydroxy-1-oxo-2-phenylethyl)amino]-2-hydroxy-4-phenylbutyl]amino]-2-hydroxy-1-(phenylmethyl)propyl]carbamic acid, 1-dimethylethyl ester]",27,
"COC(=O)NC(C)(C(=O)N[C@@H](Cc1ccccc1)[C@H](O)CNC[C@@H](O)[C@H](Cc1ccccc1)NC(=O)OC(C)(C)C)C(C)(C)C (single isomer, unassigned; isomer b) [Compound 374, [1S-[1R*,2S*(2S*, 3R*)]]-[1-[[[3-[[3-[[(1,1-Dimethylethoxy)carbonyl]amino]-2-hydroxy-4-phenylbutyl]amino]-2-hydroxy-1-(phenylmethyl)propyl]amino]carbonyl]-1,2-dimethylpropyl]carbamic acid, methyl ester, isomer B]",,HIV Protease % Inhibition at 10 μM [2]: 28%
"CC(C)(C)OC(=O)N1CCC[C@H]1[C@H](O)CNC[C@H](O)[C@@H]1CCCN1C(=O)OC(C)(C)C [Compound 8, [S-(R*,R*)]-2-[2-[[[S-(R*,S*)]-2-[1-[(1,1-Dimethylethoxy)carbonyl]-pyrrolidinyl]-2-hydroxyethyl]amino]-hydroxyethyl]-1-pyrrolidine-carboxylic acid, (1,1-dimethylethyl) ester]",2,
"CC(C)(C)COC(=O)N[C@@H](Cc1ccccc1)[C@H](O)CNC[C@@H](O)[C@H](Cc1ccccc1)NC(=O)OCC(C)(C)C [Compound 139, [1S-(1R*,2S*)]-[Iminobis[2-hydroxy-1-(phenylmethyl)-3,1-propanediyl]]biscarbamic acid, bis(2,2-dimethylpropyl)ester]",,"inhibition at 10 µM (pH 5.5, read-out: HIV Protease % Inhibition at 10 μM): 73%"
"CC(C)(C)CS(=O)(=O)N[C@@H](Cc1ccccc1)[C@H](O)CNC[C@@H](O)[C@H](Cc1ccccc1)NC(=O)OC(C)(C)C [Compound 181, [1S-[1R*,2S*(2S*,3R*)]]-[3-[[3-[[(2,2-Dimethy]propyl)sulfonyl]amino]-2-hydroxy-4-phenylbutyl]amino]-2-hydroxy-1-(phenylmethyl)propyl]carbamic acid 1,1-dimethylethyl ester]",46,
"CC(C)(C)OC(=O)N[C@@H](Cc1ccccc1)[C@H](O)CNC[C@@H](O)[C@H](Cc1ccccc1)NC(=O)C(N)C(F)(F)F (stereo partly drawn) [Compound 329, [1S-[1R*,2S*(2S*,3R*)]]-[3-[[3-[[(1-Amino-2,2,2-trifluoroethyl)carbonyl]amino]-2-hydroxy-4-phenylbutyl]amino]-2-hydroxy-1-(phenylmethyl)propyl]carbamic acid, 1,1-dimethylethyl ester]",84,
"CC(C)(C)OC(=O)N[C@@H](Cc1ccccc1)[C@H](O)CNC[C@@H](O)[C@H](Cc1ccccc1)NC(=O)C(C)(O)c1ccccn1 (single isomer, unassigned; isomer a) [Compound 381, [1S-[1R*,2S*(2S*, 3R*)]]-[2-Hydroxy-3-[[2-hydroxy-3-[[2-hydroxy-1-oxo-2-(2-pyridinyl)propyl]amino]-4-phenylbutyl]amino]-1-(phenylmethyl)propyl]carbamic acid, 1.1-dimethylethyl ester, isomer A]",,HIV Protease % Inhibition at 10 μM [2]: 60%
"CC(C)(C)OC(=O)N[C@@H](Cc1ccccc1)C(=O)N[C@@H](Cc1ccccc1)[C@H](O)CNC[C@@H](O)[C@H](Cc1ccccc1)NC(=O)OC(C)(C)C [Compound 56, [S-[1R*,2S*(2S*,3R*)]-N^2-[(1,1-Dimethylethoxy)carbonyl]-N-[3-[[3-[[(1,1-dimethlethoxy)carbonyl]amino]-2-hydroxy-4-phenylbutyl]-amino]-2-hydroxy-1-(phenylmethyl)propyl]-L-phenylalaninamide]",47,
